These results are taken from US20060069132A1, “Azolecarboxamide herbicides” (priority 2004, published 2006).

Read-outs that look alike come from different tables or passages of the source.

One test has as its system giant foxtail. The test can be described thus: Test A pre-/postemergence herbicide test. It counts as in vivo, Setaria faberi. The following applies: for pest or weed control at 500 g/ha / pest or weed control at 2000 g/ha: Setaria faberi, 240 h. The gist of the method: (§1)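 Visual injury scores on a 0–100 scale (100 = complete control) taken about ten days post-treatment in greenhouse against untreated controls; dash means no result. Treatments: preemergence soil spray and postemergence spray to runoff on one- to two-leaf plants 2 to 10 cm tall, surfactant-containing formulation.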

In a further test the test system is morningglory. Nature of the test: Test A pre-/postemergence herbicide test. It is filed as in vivo, Ipomoea spp. The following applies: for pest or weed control at 500 g/ha / pest or weed control at 2000 g/ha: Ipomoea, 240 h. An outline of the steps: as §1
The subject of a further test is rice. Nature of the test: Test B pre-/postemergence herbicide test. It is filed as in vivo, Oryza sativa. Particulars: for plant injury at 125 g/ha / plant injury at 500 g/ha: Oryza sativa, pre-emergence, 336 h. The gist of the method: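 Test chemicals in a non-phytotoxic solvent mixture with surfactant were applied preemergence to seeded species and postemergence to plants 2-18 cm tall (1- to 4-leaf stage); rice and barnyardgrass were also tested in a flooded paddy at the 2-leaf stage. Visual rating versus controls after 13-15 days in greenhouse, scale 0 (no effect) to 100 (complete control).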

Test [1] has as its system smallflower umbrella sedge. The test can be described thus: Test C flooded paddy test. It counts as in vivo, Cyperus difformis. Particulars: for Plant response rating, Sedge, Umbrella / pest or weed control at 500 g/ha: 500 g ai/ha, visual rating after 12 to 14 days; for pest or weed control at 62 g/ha / pest or weed control at 125 g/ha / pest or weed control at 250 g/ha / pest or weed control at 500 g/ha: Cyperus difformis; for pest or weed control at 62 g/ha / pest or weed control at 125 g/ha / pest or weed control at 250 g/ha: read-out: Sedge, Umbrella plant response rating; for pest or weed control at 500 g/ha: read-out: Plant response rating, Sedge, Umbrella.

Another test deals with barnyardgrass. Nature of the test: Test C flooded paddy test. It counts as in vivo, Echinochloa crus-galli. Particulars: for Plant response rating, Barnyardgrass / pest or weed control at 500 g/ha: 500 g ai/ha, visual rating after 12 to 14 days; for pest or weed control at 62 g/ha / pest or weed control at 125 g/ha / pest or weed control at 250 g/ha / pest or weed control at 500 g/ha: Echinochloa crus-galli; for pest or weed control at 62 g/ha / pest or weed control at 125 g/ha / pest or weed control at 250 g/ha: read-out: Barnyardgrass plant response rating; for pest or weed control at 500 g/ha: read-out: Plant response rating, Barnyardgrass. The gist of the method: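 Greenhouse test with a 12–14 day hold after application and visual comparison with controls. Emerged plants were 1- to 4-leaf stage (2–18 cm) when sprayed postemergence, and the paddy barnyardgrass was at 2 leaves under flooded conditions. 100 = complete control.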

The mark [2] stands for this setting: Postemergence, 500 g ai/ha, 0 to 100 scale, 0 no effect, 100 complete control.
[3] abbreviates: Postemergence, 2000 g ai/ha, 0 to 100 scale, 0 no effect, 100 complete control.
[4] abbreviates: Preemergence, 500 g ai/ha, visual rating, 0 to 100 scale (0 no effect, 100 complete control).
The mark [5] stands for this setting: Preemergence, 2000 g ai/ha, visual rating, 0 to 100 scale (0 no effect, 100 complete control).
[6] abbreviates: 62 g ai/ha, scale 0 to 100 (0 no effect, 100 complete control).
Setting [7] is: 125 g ai/ha, scale of 0 to 100, 0 is no effect, 100 is complete control.
Where [8] appears, read: 250 g ai/ha, scale of 0 to 100, 0 is no effect, 100 is complete control.
Where [9] appears, read: scale 0 to 100 (0 no effect, 100 complete control).
The mark [10] stands for this setting: 125 g ai/ha, 0 = no effect, 100 = complete control, read-out: Rice plant response rating (0 to 100 scale).
Where [11] appears, read: 500 g ai/ha, visual rating, 0 = no effect, 100 = complete control, read-out: Plant response rating, Rice.
[12] abbreviates: 125 g ai/ha, scale 0 to 100 (0 no effect, 100 complete control).
The mark [13] stands for this setting: post-emergence, Postemergence, 500 g ai/ha, 0 to 100 scale, 0 no effect, 100 complete control, read-out: Foxtail, Giant plant response rating.
[14] abbreviates: post-emergence, Postemergence, 2000 g ai/ha, 0 to 100 scale, 0 no effect, 100 complete control, read-out: Plant response rating, Foxtail, Giant.
Setting [15] is: pre-emergence, Preemergence, 2000 g ai/ha, visual rating, 0 to 100 scale (0 no effect, 100 complete control), read-out: Foxtail, Giant plant response rating.
The mark [16] stands for this setting: post-emergence, Postemergence, 500 g ai/ha, 0 to 100 scale, 0 no effect, 100 complete control, read-out: Morningglory plant response rating.
Setting [17] is: post-emergence, Postemergence, 2000 g ai/ha, 0 to 100 scale, 0 no effect, 100 complete control, read-out: Plant response rating, Morningglory.
Setting [18] is: pre-emergence, Preemergence, 2000 g ai/ha, visual rating, 0 to 100 scale (0 no effect, 100 complete control), read-out: Morningglory plant response rating.
The mark [19] stands for this setting: preemergence, 500 g ai/ha, visual injury, 0 to 100 scale (0 no effect, 100 complete control).
Setting [20] is: 500 g ai/ha, visual rating, 0 = no effect, 100 = complete control, preemergence.

Regarding `C=CCn1nc(C(C)(C)C)cc1C(=O)Nc1cccc(C(C)=NO)c1` [Compound 117], the results for the “Foxtail, Giant plant response rating” value in the test with giant foxtail (setting [2]), in the test on giant foxtail (setting [4]) and in the test on giant foxtail (setting [5]) were 35, 25 and 60, respectively. For the same compound, the “Plant response rating, Foxtail, Giant” value in the test with giant foxtail (setting [3]) came to 55. Also, the “Morningglory plant response rating” value in the test with morningglory (setting [2]) was found to be 20; in the test with morningglory (setting [4]), 45; in the test with morningglory (setting [5]), 75. For the same compound, the “Plant response rating, Morningglory” value in the test with morningglory (setting [3]) was 70. Further, the “Plant response rating, Rice” value in the test with rice (preemergence, 125 g ai/ha, 0 to 100 scale, 0 is no effect, 100 is complete control) amounted to 20. Moreover, the “Sedge, Umbrella plant response rating” value in test [1] (setting [6]) stood at 40; in test [1] (setting [7]) it was 55; in test [1] (setting [8]) it was 75. Also, in test [1] (setting [9]), the “Plant response rating, Sedge, Umbrella” value amounted to 80. The “Barnyardgrass plant response rating” value with barnyardgrass (setting [6]) turned out to be 10; in the test with barnyardgrass (setting [7]), 20; in the test with barnyardgrass (setting [8]), 50. Further, in the test with barnyardgrass (setting [9]), the “Plant response rating, Barnyardgrass” value is 50.
With `CCNC(=O)c1cc(NC(=O)c2cn(C(C)(C)C)nc2CC)ccc1F` [Compound 241, 1-(1,1-dimethylethyl)-3-ethyl-N-[3-[(ethylamino)carbonyl]-4-fluorophenyl]-1H-pyrazole-4-carboxamide], in the test with rice (setting [10]), the plant injury at 125 g/ha was 0%. Moreover, in the test with rice (setting [11]), the plant injury at 500 g/ha was determined as 80%. For the same compound, the pest or weed control at 62 g/ha (in test [1] (setting [6]); with barnyardgrass (setting [6])) was 0% throughout. Moreover, the pest or weed control at 125 g/ha (in test [1] (setting [12]); in the test on barnyardgrass (setting [12])) was 0% in each case. The results for the pest or weed control at 250 g/ha (in test [1] (setting [8]); in the test with barnyardgrass (setting [8])) were 55% and 0%, respectively. Besides, the pest or weed control at 500 g/ha in test [1] (setting [9]) is 85%; in the test with barnyardgrass (setting [9]) it was 30%.
For the compound `CCn1nc(C(C)(C)C)cc1C(=O)Nc1ccc(F)c(C(=O)N(C)C)c1` [Compound 236, N-[3-[(dimethylamino)carbonyl]-4-fluorophenyl]-3-(1,1-dimethylethyl)-1-ethyl-1H-pyrazole-5-carboxamide], the plant injury at 125 g/ha in the test on rice (setting [10]) was determined as 40%. Moreover, the plant injury at 500 g/ha in the test with rice (setting [11]) came out at 60%. Moreover, the pest or weed control at 62 g/ha (in test [1] (setting [6]); in the test with barnyardgrass (setting [6])) was 0% throughout. The pest or weed control at 125 g/ha in test [1] (setting [12]) was found to be 20%; in the test with barnyardgrass (setting [12]) it was 0%. Also, the pest or weed control at 250 g/ha in test [1] (setting [8]) was 45%; in the test with barnyardgrass (setting [8]), 15%. The figures for the pest or weed control at 500 g/ha (in test [1] (setting [9]); in the test with barnyardgrass (setting [9])) were 55% and 40%, respectively.
Consider `CCOC(=O)c1ccc(F)c(NC(=O)C2CC(C(C)(C)C)=NN2CC)c1` (stereo not drawn) [Compound 267, ethyl 3-[[[3-(1,1-dimethylethyl)-1-ethyl-4,5-dihydro-1H-pyrazol-5-yl]carbonyl]amino]-4-fluorobenzoate], for which the pest or weed control at 500 g/ha in the test with giant foxtail (setting [13]) is 30%; in the test on giant foxtail (pre-emergence, preemergence, 500 g ai/ha, visual injury, 0 to 100 scale (0 no effect, 100 complete control), read-out: Foxtail, Giant plant response rating), 75%; in the test with morningglory (setting [16]), 30%; in the test with morningglory (pre-emergence, preemergence, 500 g ai/ha, visual injury, 0 to 100 scale (0 no effect, 100 complete control), read-out: Morningglory plant response rating) it was 20%. In addition, the pest or weed control at 2000 g/ha with giant foxtail (setting [14]) was determined as 55%; with giant foxtail (setting [15]), 85%; with morningglory (setting [17]) it was 45%; in the test on morningglory (setting [18]), 45%. Moreover, the plant injury at 125 g/ha in the test with rice (setting [10]) is 20%. The plant injury at 500 g/ha in the test with rice (setting [11]) was found to be 40%.
Take `CCn1nc(C(C)(C)C)cc1C(=O)Nc1cc(C(=O)OC)ccn1` [Compound 151, methyl 2-[[[3-(1,1-dimethylethyl)-1-ethyl-1H-pyrazol-5-yl]carbonyl]amino]-4-pyridinecarboxylate]: the pest or weed control at 500 g/ha is 10% in the test with giant foxtail (setting [13]); 0% in the test on giant foxtail (pre-emergence, Preemergence, 500 g ai/ha, visual rating, 0 to 100 scale (0 no effect, 100 complete control), read-out: Foxtail, Giant plant response rating); 10% in the test with morningglory (setting [16]); 0% in the test on morningglory (pre-emergence, Preemergence, 500 g ai/ha, visual rating, 0 to 100 scale (0 no effect, 100 complete control), read-out: Morningglory plant response rating). Besides, the pest or weed control at 2000 g/ha stood at 10% with giant foxtail (setting [14]), 0% in the test with giant foxtail (setting [15]), 20% in the test with morningglory (setting [17]) and 0% in the test with morningglory (setting [18]). The plant injury at 500 g/ha with rice (500 g ai/ha, visual rating 0-100, 0 no effect, 100 complete control, read-out: Plant response rating, Rice) was determined as 0%. In the test on rice (preemergence, 125 g ai/ha, 0 to 100 scale, 0 is no effect, 100 is complete control, read-out: Plant response rating, Rice), the plant injury at 125 g/ha is 0%.
In the case of `CCn1nc(C(C)(C)C)cc1C(=O)Nc1cccc(OC(C)C)c1` [Compound 273], the “Foxtail, Giant plant response rating” value was determined as 50 with giant foxtail (setting [2]), 100 in the test with giant foxtail (setting [5]) and 85 with giant foxtail (setting [19]). In addition, the “Plant response rating, Foxtail, Giant” value in the test with giant foxtail (setting [3]) came to 70. The “Morningglory plant response rating” value with morningglory (setting [2]) stood at 70; in the test with morningglory (setting [5]) it was 80; in the test on morningglory (setting [19]), 45. Further, the “Plant response rating, Morningglory” value in the test on morningglory (setting [3]) turned out to be 75. Further, the “Rice plant response rating (0 to 100 scale)” value with rice (125 g ai/ha, 0 = no effect, 100 = complete control, preemergence) is 0. Also, the “Plant response rating, Rice” value with rice (setting [20]) came out at 40. In addition, the “Sedge, Umbrella plant response rating” value was 70 in test [1] (62 g ai/ha, scale 0 to 100); 75 in test [1] (setting [12]); 75 in test [1] (setting [8]). Besides, the “Plant response rating, Sedge, Umbrella” value in test [1] (setting [9]) is on record as 75. Besides, the entries for the “Barnyardgrass plant response rating” value with barnyardgrass (setting [6]), with barnyardgrass (setting [12]) and in the test on barnyardgrass (setting [8]) were 20, 40 and 60, respectively. In addition, in the test with barnyardgrass (setting [9]), the “Plant response rating, Barnyardgrass” value is on record as 70.
For the compound `CCOC(=O)c1ccc(F)c(NC(=O)c2cc(C3(C)CC3)nn2CC)c1` [Compound 296], the “Plant response rating, Rice” value in the test with rice (setting [20]) was found to be 40. Moreover, the “Sedge, Umbrella plant response rating” value is recorded as 75 in test [1] (62 g ai/ha, scale 0 to 100); 75 in test [1] (setting [12]); 75 in test [1] (setting [8]). Further, in test [1] (setting [9]), the “Plant response rating, Sedge, Umbrella” value is on record as 85. The “Barnyardgrass plant response rating” value is reported as 15 in the test on barnyardgrass (setting [6]), 25 in the test on barnyardgrass (setting [12]) and 50 in the test on barnyardgrass (setting [8]). The “Plant response rating, Barnyardgrass” value in the test with barnyardgrass (setting [9]) turned out to be 65.
